Results reported in patent US20100003346A1, “COMBINATION METHODS OF TREATING CANCER” (priority 2006, published 2010).
Like-named read-outs stand apart in the source and are kept apart here.

Columns and labels:
[1] = test system: D122 murine lung carcinoma; assay: Cytotoxicity assay (MTS, CellTiter 96) in D122 cells; conditions: for IC50: Mus musculus
Procedure: (§1) CT26 is a murine colon carcinoma. DA-3 is a murine mammary adenocarcinoma. TRAMP C1 is a murine prostate adenocarcinoma. MCF7 is a human breast adenocarcinoma. M IA PaCa-2 is a human pancreatic carcinoma. D122 is a murine lung carcinoma. BCL1 is a murine B cell leukemia. All cell lines were purchased from ATCC (Rockville, Md., USA), except for DA3 and D122 which were kindly provided by Prof. Y. Keisari (Tel-Aviv University, Israel).
(§2) All cells (except for BCL1) were plated into 96-well microtiter plates (Corning) at a density of 2*10^3 cells per well and were allowed to adhere prior to treatment. BCL1 cells were seeded at a density of 20*10^4 cells per well. The cells were exposed to MJ, cytotoxic drugs, 2DG or their combinations at different concentrations for 24 hours. Cytotoxic drugs and 2DG were added 1 h prior to MJ addition.
(§3) Inhibition of cell proliferation was determined by the CellTiter 96 Aqueous Non-Radioactive Cell Proliferation Assay (Promega, Madison, Wis., USA). Upon completion of a given experiment, 20 μl of a mixture (20:1) of MTS (a tetrazolium compound, at a final concentration of 333 μg/ml)+phenazine methosulfate (at a final concentration of 25 μM) were added to each well of the 96-well plate for 1 h at 37° C. This allowed for the development of the reaction in which dehydrogenases reduce the MTS in metabolically active cells. […] Soluble MTS formazan product at wavelength 490 nm was measured with the CERES 900 HDi ELISA reader (Bio-Tek Instruments, Highland Park, Vt., USA). Optical density is directly proportional to the number of living cells in culture. Cytotoxicity (%) was calculated in the following way: [(absorbance of control cells−absorbance of drug-treated cells)/absorbance of control cells]×100.

[2] = test system: DA-3 murine mammary adenocarcinoma; assay: Cytotoxicity assay (MTS, CellTiter 96) in DA-3 cells; conditions: for IC50: Mus musculus
Procedure: as §1
The cells were maintained in a humidified atmosphere, at 37° C. with 5% CO2. CT26 and DA-3 cells were maintained in Dulbecco's modified Eagle's medium (Biological Industries, Beit-Haemek, Israel), supplemented with 10% FCS, 2 mM L-glutamine, 100 U ml^−1 penicillin, 100 μg ml^−1 streptomycin, 1 mM sodium pyruvate and 1:100 dilution of nonessential amino acids (all purchased from Biological Industries, Israel).
as §2, §3

[3] = test system: CT26 murine colon carcinoma; assay: Cytotoxicity assay (MTS, CellTiter 96) in CT26 cells; assay type: cell-based
Procedure: as §1
The cells were maintained in a humidified atmosphere, at 37° C. with 5% CO2. CT26 and DA-3 cells were maintained in Dulbecco's modified Eagle's medium (Biological Industries, Beit-Haemek, Israel), supplemented with 10% FCS, 2 mM L-glutamine, 100 U ml^−1 penicillin, 100 μg ml^−1 streptomycin, 1 mM sodium pyruvate and 1:100 dilution of nonessential amino acids (all purchased from Biological Industries, Israel). […]
Inhibition of cell proliferation was determined by the CellTiter 96 Aqueous Non-Radioactive Cell Proliferation Assay (Promega, Madison, Wis., USA). […] Soluble MTS formazan product at wavelength 490 nm was measured with the CERES 900 HDi ELISA reader (Bio-Tek Instruments, Highland Park, Vt., USA). […] Cytotoxicity (%) was calculated in the following way: [(absorbance of control cells−absorbance of drug-treated cells)/absorbance of control cells]×100.

[4] = test system: MCF7 human breast adenocarcinoma; assay: Cytotoxicity assay (MTS, CellTiter 96) in MCF7 cells; assay type: cell-based
From the text: as §1
(§4) MCF7, MIA PaCa-2 and BCL1 cells were maintained in RPMI-1640 medium (Biological Industries, Israel) supplemented with 10% FCS, 2 mM L-glutamine, 100 U ml^−1 penicillin and 100 μg ml^−1 streptomycin.
as §2, §3

[5] = test system: BCL1 murine B cell leukemia; assay: Cytotoxicity assay (MTS, CellTiter 96) in freshly extracted BCL1 cells; conditions: for Interaction of MJ with drug (cytotoxicity vs expected additivity): BCL1; for Cooperative effect of combination of MJ and chemotherapeutic drug: BCL1 cells, drug combined with fixed concentration of MJ (0.1 mM), cooperative = pV<0.05 vs expected additivity; for IC50: Mus musculus
From the text: as §1, §4
BCL1 cells, which are unable to grow continuously in culture, were maintained in BALB/c mice. Blood was taken from the tail vein of BCL1-bearing mice on day 23-28 post inoculation, and depleted of red blood cells (RBC) using RBC lysis buffer (Sigma-Aldrich). The purified leukemic cells were used for in vitro and in vivo experiments.
as §2, §3

BCL1 leukemia = assay: Survival of BCL1 leukemia-bearing mice; assay type: in vivo, BALB/c mice; conditions: MJ 60 mg/kg i.v. or adriamycin 4 mg/kg i.p. alone
Procedure: Balb/c male mice (7-8 weeks old) were obtained from the breeding colony of Tel-Aviv University, Israel. Animal care and experimentation were carried out in accordance with Tel-Aviv University guidelines and approved by the institutional animal use and care committee. Mice were kept in cages under standard food and housing conditions during the experiments.
(§5) 2×10^4 BCL1 cells, freshly extracted from BCL1 leukemia bearing BALB/c mice, were inoculated intraperitoneally (i.p.) into mice in 100 μl PBS to produce tumor growth. Methyl jasmonate at 60 mg/kg was administered to animals 5 times a week, daily, for 4 weeks, starting one day after cell inoculation. […] MJ was dissolved in a lipid formulation, Lipofundin (B. Braun Melsungen, Melsungen, Germany). The adriamycin was given to mice twice, on days 7 and 14, at 4 mg/kg, i.p. Control mice were treated with the vehicle alone. The survival of mice was monitored daily.
Statistical significance in in vitro experiments was assessed using the two-tailed Student's t-test. P<0.05 was considered statistically significant. The survival curves (Kaplan-Meier test) and statistical analysis (Mantel-Cox test) were carried out using Statistical software.
Since adriamycin is used for treatment of leukemia, it was chosen for an experiment assessing a combination with MJ in vivo. […]

[6] = test system: MIA PaCa-2 human pancreatic carcinoma; assay: Cytotoxicity assay (MTS, CellTiter 96) in MIA PaCa-2 cells; conditions: for IC50: Homo sapiens; for Cooperative effect of combination of MJ and chemotherapeutic drug: MIA PaCA-2 cells, drug combined with fixed concentration of MJ, cooperative = pV<0.05 vs expected additivity
From the text: as §1, §4, §2, §3

[7] = test system: TRAMP C1 murine prostate adenocarcinoma; assay: Cytotoxicity assay (MTS, CellTiter 96) in TRAMP C1 cells; assay type: cell-based; conditions: for Cooperative effect of combination of MJ and chemotherapeutic drug / IC50: TRAMP C1 cells; for Cooperative effect of combination of MJ and chemotherapeutic drug: drug combined with fixed concentration of MJ, cooperative = pV<0.05 vs expected additivity; for IC50: Mus musculus
Procedure: as §1
TRAMP C1 cells were grown in Dulbecco's modified Eagle's medium supplemented with 10% FCS, 2 mM L-glutamine, 100 U ml^−1 penicillin, 100 μg ml^−1 streptomycin, 1 mM sodium pyruvate, 1:100 dilution of nonessential amino acids, 5 μg/ml bovine insulin and 10 nM dehydroisoandrosterone.
as §2, §3

[8] = mouse, in vivo
Procedure: as §5

[9] = drug at other concentrations + 0.1 mM MJ

## O=CC[C@@H](O)[C@H](O)[C@H](O)CO [2DG, 2-Deoxy-D-glucose]
[1]; D122, 2DG 0.5 mM, each MJ concentration, pV<0.05
  Effect of 2DG on cytotoxicity of MJ: significantly enhanced
[2]; DA-3, 2DG 0.5 mM with MJ
  Effect of 2DG on cytotoxicity of MJ: No cooperative effect
[3]; CT26, 2DG 0.5 mM, each MJ concentration, pV<0.05
  Effect of 2DG on cytotoxicity of MJ: significantly enhanced
[4]; MCF7, 2DG 0.5 mM, other MJ concentrations
  Effect of 2DG on cytotoxicity of MJ: additive

## COc1cccc2c1C(=O)c1c(O)c3c(c(O)c1C2=O)C[C@@](O)(C(=O)CO)C[C@@H]3O[C@H]1C[C@H](N)[C@H](O)[C@H](C)O1 [Adriamycin]
[5]; adriamycin 10 and 25 ng/ml + 0.1 mM MJ
  Interaction of MJ with drug (cytotoxicity vs expected additivity): cooperation
[5]; [9]
  Interaction of MJ with drug (cytotoxicity vs expected additivity): additive effect
[5]
  Cooperative effect of combination of MJ and chemotherapeutic drug: +
BCL1 leukemia
  Survival of BCL1 leukemia-bearing mice, single agent: did not induce increased survival

## O=NN(CCCl)C(=O)NCCCl [BCNU, 1,3-bis{2-Chloroethyl}-1-nitroso-urea]
[6]; MIA PaCa-2, read-out: IC50 of BCNU by itself
  IC50: > 25 µg/mL
[6]; MIA PaCa-2, read-out: IC50 of BCNU in the combination with MJ
  IC50: < 1 µg/mL
[6]
  Cooperative effect of combination of MJ and chemotherapeutic drug: +
[6]; MIA PaCa-2, BCNU at all concentrations tested (1-25 μg/ml) + 1 mM MJ
  Interaction of MJ with drug (cytotoxicity vs expected additivity): strong cooperative effects
[5]; BCNU 2.5 and 5 μg/ml + 0.1 mM MJ, pV<0.05
  Interaction of MJ with drug (cytotoxicity vs expected additivity): cooperation
[5]; [9]
  Interaction of MJ with drug (cytotoxicity vs expected additivity): additive effect
[5]
  Cooperative effect of combination of MJ and chemotherapeutic drug: +

## N.N.[Cl][Pt][Cl] [Cisplatin, cis Diammineplatinum (II) dichloride]
[7]
  Cooperative effect of combination of MJ and chemotherapeutic drug: +
[6]
  Cooperative effect of combination of MJ and chemotherapeutic drug: +

## CC/C=C\CC1C(=O)CCC1CC(=O)OC (stereo not shown) [MJ, methyl 3-oxo-2-(2-pentenyl)cyclopentaneacetic acid]
[1]; 24 h, read-out: IC50 of MJ
  IC50: 1220 ± 60 µM
[2]; DA-3, 24 h, read-out: IC50 of MJ
  IC50: 1910 ± 80 µM
[3]; Mus musculus, CT26 cells, 24 h exposure
  IC50: 2590 ± 120 µM
[7]; 24 h exposure, read-out: IC50 of MJ
  IC50: 2940 ± 130 µM
[6]; MIA PaCa-2, 24 h, read-out: IC50 of MJ
  IC50: 1460 ± 130 µM
[4]; Homo sapiens, MCF7 cells, 24 h exposure
  IC50: 1490 ± 60 µM
[5]; BCL1, 24 h, read-out: IC50 of MJ
  IC50: 560 ± 90 µM
[5]; BCL1, read-out: IC50 of MJ
  IC50: 560 µM
[8]
  Tolerability of MJ dose: well tolerated

## CC(=O)O[C@H]1C(=O)[C@@]2(C)[C@H]([C@H](OC(=O)c3ccccc3)[C@]3(O)C[C@H](OC(=O)[C@H](O)[C@@H](NC(=O)c4ccccc4)c4ccccc4)C(C)=C1C3(C)C)[C@]1(OC(C)=O)CO[C@@H]1C[C@@H]2O [Taxol]
[1]; D122 cells, drug combined with fixed concentration of MJ, cooperative = pV<0.05 vs expected additivity
  Cooperative effect of combination of MJ and chemotherapeutic drug: +
[1]; read-out: IC50 of taxol alone
  IC50: 8.2 µg/mL
[1]; read-out: IC50 of taxol in the presence of MJ
  IC50: < 1 µg/mL
[2]; DA-3 cells, drug combined with fixed concentration of MJ, cooperative = pV<0.05 vs expected additivity
  Cooperative effect of combination of MJ and chemotherapeutic drug: +
[2]; DA-3, read-out: IC50 of taxol alone
  IC50: 9 µg/mL
[2]; DA-3, read-out: IC50 of taxol in combination with MJ
  IC50: 2.5 µg/mL
[7]; drug alone, read-out: IC 50 of taxol
  IC50: 38 µg/mL
[7]; with 1 mM MJ, read-out: IC 50 of taxol by combined treatment with MJ
  IC50: 2 µg/mL
[7]; TRAMP C1, taxol at all concentrations tested (1-50 μg/ml) + 1 mM MJ
  Combined effect of taxol with MJ vs expected additivity: significantly higher than the expected additivity
[7]
  Cooperative effect of combination of MJ and chemotherapeutic drug: +
[4]; MCF7, taxol 2.5 μg/ml + 1 mM MJ
  Interaction of MJ with drug (cytotoxicity vs expected additivity): enhances the cytotoxic capability
[4]; MCF7, taxol at other concentrations + 1 mM MJ
  Interaction of MJ with drug (cytotoxicity vs expected additivity): additive
[4]; MCF7 cells, drug combined with fixed concentration of MJ, cooperative = pV<0.05 vs expected additivity
  Cooperative effect of combination of MJ and chemotherapeutic drug: +
[5]; drug + 0.1 mM MJ
  Interaction of MJ with drug (cytotoxicity vs expected additivity): No cooperative effect
